In patent publication US20220323591A1, “HEPARIN NANO DRUG CARRIER SYSTEM LOADED WITH AMINO ANTI-TUMOR DRUG AND PREPARATION METHOD THEREOF” (NANJING KING-FRIEND BIOCHEMICAL PHARMACEUTICAL CO., LTD., priority 2020, published 2022):

Experiments:
[1] = tested on: 4T1 breast cancer xenograft tumors; test: In vivo experiment of breast cancer cells, daunorubicin nano drug carrier systems; conditions: 3 mg/kg via caudal veins, once every three days, 4 times; 4T1 in BALB/c mice
Experimental: Anti-tumor effects of nanoparticles in vivo are studied in BALB/c mice with 4T1 breast cancer xenograft tumors. Free daunorubicin (Group I), daunorubicin-Py-PEG-HP (Group II) and daunorubicin-Mal-PEG-HP (Group III) are administered via caudal veins at a dose of 3 mg/kg, for once every three days and in total 4 times, with the free daunorubicin group (Group I) as the control.

[2] = tested on: acute promyelocytic leukemia (HL-60) cells; test: Uptake experiment of leukemia cells; format: cell-based; conditions: 1×10^5/ml
Experimental: An uptake experiment of free daunorubicin, daunorubicin-Py-PEG-HP and daunorubicin-Mal-PEG-HP with acute promyelocytic leukemia (HL-60) cells: the concentration of HL-60 cells is adjusted to 1×10^5/ml, and the cells are added into a 24 -well plate with 1 ml per well; a certain concentration of pure DNR solution and a certain concentration of DNR-NP suspension are added into a culture plate, and cultured for a certain time, then the cells are taken out at five time points (30 min, 60 min, 90 min, 120 min and 180 min) respectively; centrifugation is performed at 4° C. under 1000 rpm for 5 min, and the cells are collected, and then washed twice using a RPM11640 medium added with serum; the cells are lysed with 1.5 ml of 50 μg/ml protease K and a 1% SDS solution, with continuous shaking performed at 37° C. for 12 hours, and a cell extract is collected; and the drug content in the cells is calculated by a fluorescence intensity standard curve.

[3] = tested on: xenotransplantation 4T1 tumor model; test: In vivo experiment of breast cancer cells, lenalidomide and lapatinib nano drug carrier systems; parameters: species or system BALB/c mice; conditions: 4 mg/kg via caudal veins, once every two days, 5 times; normal saline as control
Experimental: The anti-tumor effect of nanoparticles in vivo is based on investigation of a xenotransplantation 4T1 tumor model established in the BALB/c mice. Each of groups represents normal saline (Group I), free lenalidomide (Group II), lenalidomide-Py-PEG-HP (Group III), […] lenalidomide-Mal-PEG-HP (Group IV), free lapatinib (Group V), lapatinib-Py-PEG-HP (Group VI) and lapatinib-Mal-PEG-HP (Group VII) respectively, wherein they are administrated via caudal veins at a dosage of 4 mg/kg, once every two days, with a total of 5 times. As shown in the diagram below, the tumor development is detected on the second day after administration.

[4] = tested on: 5T33 multiple myeloma cells; test: In vivo experiment of multiple myeloma; parameters: species or system mice
Experimental: Thirty 6-week-old mice are divided into three groups, which are administrated with free lenalidomide (Group I), lenalidomide-Py-PEG-HP (Group II) and lenalidomide-Mal-PEG-HP (Group III) respectively. Male and female animals in each group are halved, and there is no statistically significant difference in body weight among animals in each group. The dosage of free lenalidomide group is 0.1 ml/kg body weight/day, and the dosage of lenalidomide-Py-PEG-HP group and lenalidomide-Mal-PEG-HP group is 20 mg/kg (body weight/day).
One week after injection of 1,000,000 5T33 multiple myeloma cells into the tail veins of mice, drugs are administered subcutaneously according to the above scheme, for three times a week. During the administration period, the animals are weighed every day, and the dosage on that day is determined according to the weight, and the animals are continuously administered until death of the mice. The venous blood of mice is collected and stored every week, and the time of death of mice is recorded.
According to the statistical test, there is significant difference in the survival time of mice when free lenalidomide group is compared with heparin nano drug carrier system (P<0.05), as shown in Table 1. There is significant difference in the tumor load in serum of mice when the free lenalidomide group is compared with heparin nano drug carrier system (P<0.05), as shown in Table 2.

Structure (SMILES)	anti-tumor effect (tumor volume) [1]	uptake efficiency [2] [%]	anti-tumor effect (tumor development) [3]	Average survival days of mice after drug injection ([4]; 5T33 mice, subcutaneous, three times a week, free lenalidomide 0.1 ml/kg body weight/day, conjugates 20 mg/kg) [days]	Average tumor load in serum of mice after drug injection ([4]; 1 day, mouse LGg2b concentration) [µg/mL]	Average tumor load in serum of mice after drug injection ([4]; 8 days) [µg/mL]	Average tumor load in serum of mice after drug injection ([4]; 15 days) [µg/mL]	Average tumor load in serum of mice after drug injection ([4]; 22 days) [µg/mL]	Average tumor load in serum of mice after drug injection ([4]; 29 days) [µg/mL]
COc1cccc2c1C(=O)c1c(O)c3c(c(O)c1C2=O)C[C@@](O)(C(C)=O)C[C@@H]3O[C@H]1C[C@H](N)[C@H](O)[C@H](C)O1 [free daunorubicin, daunorubicin]	insignificant anti-tumor activity	16	–	–	–	–	–	–	–
CS(=O)(=O)CCNCc1ccc(-c2ccc3ncnc(Nc4ccc(OCc5cccc(F)c5)c(Cl)c4)c3c2)o1 [free lapatinib, lapatinib]	–	–	have the anti-tumor activity	–	–	–	–	–	–
Nc1cccc2c1CN(C1CCC(=O)NC1=O)C2=O (stereo not shown) [free lenalidomide, lenalidomide]	–	–	have the anti-tumor activity	35	125.3	206.5	335.2	611.4	864.1
